Data: patent US6503935B1, “Imidazoles and related compounds as α1A agonists” (Abbott Laboratories, priority 1998, dated 2003)
pKi: −log10 of the molar value. Counter-ions that a name gives are not always drawn. Like-named read-outs stand apart in the source and are kept apart here.

Legend:
α1A (rabbit urethra) = molecular target: T1, α1A (rabbit urethra) (Oryctolagus cuniculus, UniProt O02824); assay: Agonist contraction of smooth muscle tissue, rabbit urethra; assay type: cell-based; conditions: rabbit urethra; read-out: Agonist Tissue Response (pD2) α1A (rab ureth) (converted)
T1 construct: tested for α1A functional activity using rabbit urethra; from tissue; host or cells: rabbit urethra
T1 sequence (O02824 1-466): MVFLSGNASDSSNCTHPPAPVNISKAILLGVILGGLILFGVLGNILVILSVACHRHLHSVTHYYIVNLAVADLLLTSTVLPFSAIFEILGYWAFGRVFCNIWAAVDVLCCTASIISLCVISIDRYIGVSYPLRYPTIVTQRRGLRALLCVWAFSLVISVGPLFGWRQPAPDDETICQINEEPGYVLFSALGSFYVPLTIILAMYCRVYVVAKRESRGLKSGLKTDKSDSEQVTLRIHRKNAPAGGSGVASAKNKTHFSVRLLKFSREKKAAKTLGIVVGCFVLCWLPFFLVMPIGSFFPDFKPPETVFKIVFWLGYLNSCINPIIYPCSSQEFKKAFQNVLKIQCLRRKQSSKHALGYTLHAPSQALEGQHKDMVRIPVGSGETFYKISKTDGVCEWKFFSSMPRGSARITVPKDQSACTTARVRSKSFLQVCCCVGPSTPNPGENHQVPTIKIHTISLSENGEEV
Procedure: Most of the compounds were tested for α1A functional activity using rabbit urethra as follows. Female New Zealand white rabbits (2.0-3.5 Kg) were sedated with CO2 and decapitated. […] Subsequent experimental conditions were as described above for the other tissues. Agonist concentration response curves were cumulative except for the vas deferens assay in which the transient response made such measurements impractical.

[1] = molecular target: T2, α1d (rat receptor expressed in mouse fibroblasts) (Rattus norvegicus, UniProt P23944); assay: Radioligand binding with [3H]-prazosin, α1d; conditions: rat receptor expressed in mouse fibroblasts, [3H]-prazosin
T2 construct: expressed in transfected cells; host or cells: mouse fibroblasts
T2 sequence (P23944 1-561): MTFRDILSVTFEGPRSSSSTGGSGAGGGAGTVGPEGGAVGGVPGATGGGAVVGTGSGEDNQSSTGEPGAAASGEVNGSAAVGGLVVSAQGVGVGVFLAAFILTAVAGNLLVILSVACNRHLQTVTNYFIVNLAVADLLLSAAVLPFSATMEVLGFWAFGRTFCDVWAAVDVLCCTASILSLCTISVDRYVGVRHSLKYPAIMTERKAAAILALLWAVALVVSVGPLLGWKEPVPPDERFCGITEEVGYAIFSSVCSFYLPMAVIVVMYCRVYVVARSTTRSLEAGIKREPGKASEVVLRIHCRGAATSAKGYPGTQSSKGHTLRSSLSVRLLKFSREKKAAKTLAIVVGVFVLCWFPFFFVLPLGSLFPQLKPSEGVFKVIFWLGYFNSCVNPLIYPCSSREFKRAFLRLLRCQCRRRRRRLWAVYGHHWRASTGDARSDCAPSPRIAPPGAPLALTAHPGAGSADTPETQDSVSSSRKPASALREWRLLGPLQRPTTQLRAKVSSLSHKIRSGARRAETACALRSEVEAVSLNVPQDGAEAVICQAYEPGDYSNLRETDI
Summary of the method: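 Radioligand binding with [3H]-prazosin: α1A from rat submaxillary gland; α1b hamster receptor and α1d rat receptor, each expressed in mouse fibroblasts.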

Anesthetized Dogs = assay: Intraurethral pressure (IUP) in anesthetized dogs; assay type: in vivo, dog; conditions: for ED (5 mmHg IUP increase): Canis lupus familiaris, read-out: Mean IUP ED5; for ED (5 mmHg IUP increase) / Mean Selectivity Ratio MAP ED20/IUP ED5: iv; for ED (5 mmHg IUP increase) / Mean IUP ED5: iv dose causing a maximum increase in IUP of 5 mm Hg; for ED (5 mmHg IUP increase) / Mean Selectivity Ratio MAP ED20/IUP ED5 / Mean IUP ED5: anesthetized female dogs; for Mean IUP ED5: maleate
Excerpt: In vivo Functional Assays-Assessment of Intrurethral Pressure (IUP) and Mean Arterial Pressure (MAP) in Anesthetized Dogs
Female dogs (Marshall Farms, North Rose, N.Y.) greater that 2 years of age and weighing between 12 and 15 kg were used in these studies. At least 2 weeks prior to any agonist dosing, dogs were instrumented for the chronic measurement of arterial blood pressure by implanting a telemetry transducer/transmitter (TA11PA-C40, Data Sciences International, St. Paul, Minn.) into a carotid artery.
On the test day, dogs fasted since the previous afternoon were pre-anesthetized with thiopental sodium 15 mg/kg i.v. (Pentothal™, Abbott) and intubated. Anesthesia was maintained by allowing the dog to spontaneously breathe a mixture of isoflurane (2.5 to 3 volume %) and oxygen delivered by a Narkomed Standard anesthesia system (North American Drager, Telford, Pa.). An Abbocath-T™ i.v. catheter (18-G, Abbott) was inserted into the cephalic vein for the administration of agonists. A telemetry receiver (RA1310, DataSciences) was placed under the head of each dog and was interfaced to a computerized data acquisition system (Modular Instruments Inc.(MI2), Malvern, Pa.) which allowed for the continuous calibrated recording of arterial blood pressure which was electronically filtered to determine its mean value (MAP).
Dogs with chronic telemetry implants anesthetized as described above were placed in dorsal recumbency and a balloon catheter was inserted into the urethral orifice and advanced approximately 15 cm until the tip was well inside the bladder. The balloon was then inflated with 1 ml of room air and the catheter slowly withdrawn until resistance (corresponding to the bladder neck) was evident. The balloon was then deflated and the catheter withdrawn an additional 2 cm. The balloon was then reinflated and its catheter port connected to a Gould Statham P23Dd pressure transducer interfaced to a computerized data acquisition system (Modular Instruments, Inc., Malvern, Pa.) for the measurement of intraurethral pressure. Increasing iv doses of test agonists were administered and the maximum effect of each dose on IUP was recorded. The effect of each dose was allowed to return to baseline before the next dose was given.
From the resulting dose response curve, an ED5 value, for the dose causing a maximum increase in IUP of 5 mm Hg, could be estimated. An ED20 value for the dose causing a maximum increase in MAP of 20 mm Hg could also be estimated. A selectivity ratio of MAP ED20 vs. IUP ED5 was calculated.

[2] = read-out: Radioligand Binding Ki α1d (Rat)
[3] = Radioligand Binding Ki α1d (Rat)

Row | Structure (SMILES) | EC50 (α1A (rabbit urethra)) | pKi [1, 2] | ED (5 mmHg IUP increase) (Anesthetized Dogs) | Mean Selectivity Ratio MAP ED20/IUP ED5 (Anesthetized Dogs) | pKi [1, 3] | Mean IUP ED5 (Anesthetized Dogs) | selectivity for increasing intraurethral pressure over arterial pressure as compared to N-(3-(1H-imidazol-4-ylmethyl)-2-methylphenyl]methanesulfonamide) (Anesthetized Dogs; in vivo, dogs)
1 | CCS(=O)(=O)Nc1cccc2c1CCCC2c1c[nH]cn1.O=C(O)/C=C\C(=O)O (stereo not shown) [Example 12, N-[5-(1H-imidazol-4-yl)-5,6,7,8-tetrahydro-1-naphthalenyl]ethanesulfonamide, maleate] | 0.631 µM | 5.78 | 0.0107 µmol/kg | 7.6 |  |  | 
2 | CC(c1cccc(NS(C)(=O)=O)c1)c1c[nH]cn1.O=C(O)/C=C\C(=O)O (stereo not shown) [Example 31, N-[3-[1-(1H-imidazol-4-yl)ethyl]phenyl]methanesulfonamide, maleate] | 4.17 µM |  |  | 3.4 | 6.16 |  | 
3 | Cc1c(Cc2c[nH]cn2)cccc1NS(C)(=O)=O.O=C(O)/C=C\C(=O)O [Example 28, N-[3-(1H-imidazol-4-ylmethyl)-2-methylphenyl]methanesulfonamide, maleate] | 5.62 µM |  |  | 2.1 | 6.09 |  | 
4 | CCS(=O)(=O)Nc1cccc2c1CCCC2c1c[nH]cn1.O=C(O)/C=C\C(=O)O (single isomer, unassigned; (-)) [Example 34, (−)-N-[5-(1H-imidazol-4-yl)-5,6,7,8-tetrahydro-1-naphthalenyl]ethanesulfonamide, maleate] | 28.2 µM | 6.07 |  |  |  | >1000 nmol/kg | 
5 | O=C(Nc1cccc2c1CCCC2c1c[nH]cn1)C(F)(F)F (stereo not shown) [Example 17, 2,2,2-trifluoro-N-[5-(1H-imidazol-4-yl)-5,6,7,8-tetahydro-1-naphthalenyl]acetamide, maleate] | 0.525 µM | 5.48 |  | 1.1 |  |  | 
6 | CN(c1cccc2c1CCCC2c1c[nH]cn1)S(C)(=O)=O (stereo not shown) [Example 15, N-[5,6,7,8-tetrahydro-5-(1H-imidazol-4-yl)-1-naphthalenyl]-N-methylmethanesulfonmamide, maleate] | 0.692 µM | 6.15 |  | 2.5 |  |  | 
7 | C=C(c1cccc(NS(=O)(=O)CC)c1)c1c[nH]cn1 [Example 45, N-{3-[1-(1H-imidazol-4-yl)vinyl]phenyly}ethanesulfonamide, maleate] | 2 µM |  |  | 2.6 | 6.01 |  | 
8 | CS(=O)(=O)Nc1cccc(Cc2c[nH]cn2)c1.O=C(O)/C=C\C(=O)O [Example 21, N-[3-(1H-imidazol-4-ylmethyl)phenyl]methanesulfonamide, maleate] | 1.86 µM |  |  |  | 6.67 |  | 
9 | COc1ccc(NS(C)(=O)=O)c2c1C(c1c[nH]cn1)CCC2 (stereo not shown) [Example 26, N-[5,6,7,8-tetrahydro-(1H-imidazol-4-yl)-4-methoxyy-1-naphthalenyl]methanesulfonamide, maleate] | 15.5 µM |  |  | 2.6 |  |  | 
10 | CCS(=O)(=O)Nc1cccc(Cc2c[nH]cn2)c1C.O=C(O)/C=C\C(=O)O [Example 29, N-[3-(1H-imidazol-4-ylmethyl)-2-methylphenyl]ethanesulfonamide, maleate] |  |  |  | 5.6 | 6.17 |  | > 3 times
11 | CS(=O)(=O)Nc1ccc(F)c2c1CCCC2c1c[nH]cn1.O=C(O)/C=C\C(=O)O (stereo not shown) [Example 44, N-[4-fluoro-5-(1H-imidazol-4-yl)-5,6,7,8-tetrahydro-1-naphthalenyl]methanesulfonamide, maleate] | 4.9 µM | 5.52 | 0.844 µmol/kg | 1.0 |  |  | 
12 | CCS(=O)(=O)Nc1cccc2c1CCCC2c1c[nH]cn1.O=C(O)/C=C\C(=O)O (single isomer, unassigned; (+)) [Example 33, (+)-N-[5-(1H-imidazol-4-yl)-5,6,7,8-tetrahydro-1-naphthalenyl]ethanesulfonamide, maleate] | 0.17 µM | 5.97 |  | 3.3 |  | 10.5 nmol/kg | 
